In US20110190492A1, “DIAGNOSTIC PROBE FOR CONFORMATION DISEASE” (TOHOKU UNIVERSITY, priority 2005, published 2011):
Read-outs that look alike come from different tables or passages of the source.

What was measured:
amyloid β protein = molecular target: T1, amyloid β protein (Homo sapiens, UniProt P05067); test: Staining test on a brain section of an Alzheimer disease patient (amyloid β protein); format: binding, human (Alzheimer disease patient); settings: 100 μM compound in 50% ethanol, 10 minutes, fluorescence microscopy
T1 construct: from tissue; host or cells: paraffin-embedded human brain sections (temporal lobe, hippocampus) of Alzheimer disease patients
T1 sequence (P05067 672-713 limits assumed): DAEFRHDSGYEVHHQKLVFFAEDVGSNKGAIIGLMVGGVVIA
Excerpt: (1) Brain specimens at the temporal lobe and the hippocampus of patients to which a definitive diagnosis of Alzheimer disease had been given, and those of normal senile persons were used. The specimens were given by our coworker, Fukushimura Hospital, Longevity Medicine Institute, and we were given their consent of use of the specimens for our study purpose by the bereaved of the patients (Fukushimura Hospital Ethical Review Board Approval No. 20).
(2) The paraffin-embedded brain tissue was cut into slices having a thickness of 6 μm or 8 μm, and extended and dried on a slide. The paraffin brain section was processed for paraffin removal in xylene twice for 10 minutes, 100% ethanol twice for 5 minutes, 90% ethanol for 5 minutes and running water for 10 minutes in that order.
(3) For pretreatment prior to the staining treatment with a compound of the invention, the sections were processed for autofluorescence removal with lipofuscin. First, the paraffin-removed sections were dipped in 0.25% KMnO4 solution for 20 minutes. These were washed with PBS, twice for 2 minutes, then dipped in 0.1% K2S2O5/oxalic acid solution for about 5 seconds, and then further washed with PBS, three times for 2 minutes.
(4) About 150 μl of a 100 μM solution of a compound of the invention dissolved in 50% ethanol was dropwise applied to the section and reacted for 10 minutes. After dipped five times in tap water, the section was entrapped with Fluor Save Reagent (Calbiochem), and analyzed through microscopy with a fluorescence microscope (Nikon, Eclipse 80i). The images were taken with a digital camera (Nikon Dxm 1200F or Photometrics' Cool SNAP ES).

[1] = molecular target: T2, Tg mouse intracerebral amyloid plaque (amyloid β protein) (Homo sapiens, UniProt P05067); test: Tg mice with amyloid β deposition: intravenous administration, ex-vivo fluorescence microscopy of brain sections; format: in vivo, Tg mouse (Tg2576 or APPswe2576/Tau JPL3)
T2 construct: a Tg mouse (Tg2576) with amyloid β protein deposition; from tissue
T2 sequence (P05067 672-713 limits assumed): as above

[2] = test system: histidine-requiring Salmonella typhimurium TA100 and TA98 strains; test: Mutagenicity test (reverse mutation test); format: cell-based; settings: for relative activity: irrespective of the absence or presence of S9mix
Description: In view of their use, it is desirable that the compounds of the invention have no mutagenicity or have little mutagenicity to a level causing no problem. For investigating the gene mutagenesis of the compounds of the invention, herein carried out was a reverse mutation test with histidine-requiring Salmonella typhimurium TA100 and TA98 strains. Two tests were carried out. One is a test for dose determination test; and the other is for mutagenicity.
The test methods and the mutagenicity of the compounds of the invention are mentioned below. In the dose determination test, six doses of 0.160, 0.800, 4.00, 20.0, 100 and 500 μg/plate (common ratio 5) were tried.
As a result of the dose determination test, when the mutagenicity of the test compound was admitted, then the actual test for mutagenicity was carried out, using the dose capable of giving an accurate dose-reaction curve. When no mutagenicity of the test compound was admitted in the dose determination test and when the growth inhibition of the test cells was admitted therein, then the dose to present the growth inhibition was taken as the maximum dose; and when the growth inhibition was not admitted, then a dose of 5000 μg/plate was taken as the maximum dose. With that, the actual test for mutagenicity was carried out on the level of 6 doses (common ratio 2).
First, a test compound was dissolved or suspended in DMSO, then diluted in order to prepare test compound liquids having a varying concentration.
100 μl of a test compound liquid or a negative control (DMSO) solution was put into a sterilized test tube. Then, for the case in the absence of a metabolic activation system (−S9mix), 500 μl of 0.1 mol/liter sodium-phosphate buffer (pH 7.4) was added to it; and for the case in the presence of a metabolic activation system (+S9mix), 500 μl of S9mix was added to it.
Next, 100 μl of the test strain suspension that had been cultivated with shaking at 37° C. for 8 hours was added to it, and preincubated in a shaking thermostat at 37° C. for 20 minutes. After shaken, 2 ml of top agar was added to it, and the contents were mixed.
Next, the mixture was poured onto a minimal glucose agar plate medium (plate) and spread uniformly thereon, then the top agar was solidified, and the plate was transferred into a thermostat and incubated at 37° C. for 48 hours.
Then, the number of the colonies grown through reverse mutation was counted.
For counting it, […]. After area correction and miss-counting correction, the number of the colonies was computed. When the colony analyzer could not be used owing to the deposition of the test compound or the cell growth inhibition, then the number of the colonies was counted with the naked eye.
In case where the number of the colonies through reverse mutation increased two times or more that of the negative control and where the dose dependency or the reproducibility of the increase was admitted, then the tested sample was decided as positive. When the sample was decided as positive, then the relative activity that indicates the relative comparative value of the intensity of the mutagenicity of the test compound was obtained according to the following formula:
Relative Activity={(number of colonies per plate having the concentration)−(number of colonies per negative control plate)}/the value of concentration (mg/plate).

[3] = test system: histidine-requiring Salmonella typhimurium TA100 and TA98 strains; settings: in the presence of S9mix; literature comparison compounds; cited from earlier work
[4] = Acute toxicity test, intravenous administration to mice; format: in vivo; settings: mice observed for 7 days
Description: The compounds of the invention were tested for their acute toxicity through intravenous administration thereof to mice. Four Crj:CD1 male mice formed one test group, and some test groups of those mice were used (the mean body weight of the mice of each group was from 31 to 32 g). A test compound was dissolved in a mixture of 1 N HCl, polyethylene glycol-400 and distilled water, or dissolved in DMSO, and then diluted with distilled water. This was administered to each mouse via its tail vein.

| Compound | binding to amyloid β protein in the brain section of an Alzheimer disease patient (amyloid β protein) | relative activity [2] | relative activity [3] | other results |
| --- | --- | --- | --- | --- |
| Cc1cc2nc(/C=C/c3ccc(N4CCOCC4)s3)sc2cc1C [THK-097, 5,6-dimethyl-2-[2-(5-morpholin-4-yl-thiophen-2-yl)vinyl]-benzothiazole] | bound to the amyloid β protein | minus |  | passage through the blood-brain barrier and binding to Tg mouse intracerebral amyloid plaque ([1]; intravenous administration via tail vein, brain fixed after 1 hour, fluorescence microscopy (THK-097 0.2 mg/kg; THK-525, THK-727, THK-702 4 mg/kg)): passed through the blood-brain barrier, and bound to the Tg mouse intracerebral amyloid plaque; Relative Activity in the absence of S9Mix ([2]; (colonies per plate − colonies per negative control plate)/concentration (mg/plate), in the absence of S9Mix as printed in head): minus; Relative Activity in the presence of S9Mix ([2]; (colonies per plate − colonies per negative control plate)/concentration (mg/plate), in the presence of S9Mix as printed in head): minus^1) |
| CN(C)c1ccc(-c2cn3cc(I)ccc3n2)cc1 [IMPY] |  |  | extremely high |  |
| CC(=C(C#N)C#N)c1ccc2cc(N(C)CCF)ccc2c1 [FDDNP] |  |  | extremely high |  |
| OCC(CF)Oc1ccc2nc(/C=C/c3cnc(N4CCOCC4)s3)oc2c1 (centres unmarked) [THK-702, (E)-2-[2-(2-morpholinothiazol-5-yl)ethenyl]-6-[(1-fluoromethyl-2-hydroxy)ethoxy]-benzoxazole] | The white space arrow indicates amyloid β protein | minus |  | Maximum Permissible Dose [4]: ≧10 mg/kg; correspondence of binding site with anti-Aβ antibody-stained site of the same section ([1]; Tg2576 mouse, 4 mg/kg intravenous, antibody 4G8): completely corresponded to the anti-Aβ antibody-stained site of the same section |
